Like-named read-outs stand apart in the source and are kept apart here. One block for each molecule: values may come before it.
Assays:
[1] = cited from earlier work
[2] = test system: C. albicans; experiment: Resistance study (repeated exposure); assay type: cell-based, Candida albicans; details: SDwoz medium, 36-day period, 22 passages
Experimental: The propensity for resistance development was investigated as also described previously ([41]), but with the following modifications. […] Over a 36-day period, culture aliquots of 100 μl were periodically (every 1 to 2 days) transferred (passaged) to new culture tubes with 900 μl of fresh medium and fresh compound. […] Cells were passaged a total of 22 times, and cultures were periodically tested for antifungal susceptibility by following the protocol for antifungal susceptibility testing, as described above.

[3] = test system: Candida albicans SC5314; experiment: In vivo fungal kidney burden candidiasis model; set-up: species or system BALB/c mice; details: fluconazole 3 mg/kg p.o.
Experimental: A murine model of systemic candidiasis was established according to a previously described method ([44]). BALB/c mice were infected with a 0.1-ml inoculum (1 × 10^5 to 5 × 10^5 CFU) of Candida albicans SC5314 cells by the intravenous route on day 0. Compounds were tested at doses of 60 mg/kg. Administration of compound was initiated 24 h prior (day −1) to infection (day 0) by the intraperitoneal route, dosing twice a day for 4 days (day −1 to day 2). ZAC307 was also evaluated with administration of the compounds given after the infection at day 0 (no pretreatment) and following dosing twice a day for 3 days (days 0 to 2). Fluconazole was used as a comparator drug. Six mice were used for each group, and the untreated control group was exposed to the vehicle alone. ZAC989 and ZAC307 were formulated by taking 60 mg of compound and adding this to 2 ml and 4 ml of 0.1 N NaOH, respectively. After mixing and sonication of the resulting solutions, 4 ml of purified water was added. The pH was adjusted to 9.0 with 0.1 N HCl solution, followed by the addition of 90 mg of NaCl. The solutions were then diluted to 10 ml and filtered through a 0.22-μm polyvinylidene difluoride (PVDF) filter. Sample collection and processing were performed as follows. Twelve hours after the last dose, all treated and untreated animals were sacrificed by cervical dislocation and kidneys were collected in 3 ml of sterile normal saline. The samples were homogenized, serially diluted, and plated on Sabouraud dextrose agar (SDA). SDA plates were incubated for 24 to 48 h at 35°C, and CFU were enumerated and reported as log CFU/kidney. The endpoint was mean log CFU of fungi in kidneys of treated animals compared to that of untreated animals. The study was conducted in conformance with an application submitted to the Committee for the Purpose of Control and Supervision of Experiments on Animals (CPCSEA), New Delhi, India, after approval from the Institutional Animal Ethics Committee (IAEC).

[4] = test system: C. albicans SC5314; experiment: Time-kill assay; assay type: cell-based, Candida albicans; details: 0.5 μg/ml AMB, 3.6 μg/ml ZAC989, 4.4 μg/ml EDTA, 4.2 μg/ml TPEN; up to 24 h
Experimental: C. albicans SC5314 cells (10^5 CFU/ml) were incubated in 10 ml of RPMI medium at 30°C with gentle agitation (150 rpm) in the presence of EDTA (15 μM), TPEN (10 μM), ZAC989 (10 μM), or AMB (0.5 μM). At the desired time points (0, 3, 5.5, and 24 h), a 100-μl aliquot was removed for each test condition and serially diluted (10-fold) in saline (0.9% NaCl), and 30 μl of each dilution was plated on YPD agar plates. The colony count on each YPD plate was determined after incubation at 30°C for 48 h ([40]). C. albicans cells treated with DMSO (1%, vol/vol) served as a control.

[5] = Fluorescence-based competition assay using FluoZin-3 (compound-Zn2+ dissociation constant); assay type: binding; details: FluoZin-3 competition, PBS pH 7.4, room temperature; read-out: Compound-Zn^2+ KD
Experimental: The dissociation constant (Kd) of zinc to zinc-attenuating compounds was determined at room temperature using FluoZin-3 (F24194; […] Testing buffer consisted of PBS (pH 7.4) with 200 nM ZnCl2 and 500 nM FluoZin-3. In a microtiter plate, 98 μl of testing buffer was mixed with 2 μl of compound at a range of concentrations to determine the half-maximal inhibitory concentration (IC50). Testing plates were incubated for 2 min before being read at an excitation wavelength of 485 nm and an emission wavelength of 516 nm with a Fluoroskan Ascent microplate fluorometer (Thermo Fisher Scientific).

[6] = test system: C. parapsilosis ATCC 22019; experiment: Antifungal susceptibility testing (MIC); assay type: cell-based, Candida parapsilosis; details: Lodderomyces parapsilosis, ATCC22019; at least 50% growth inhibition, RPMI, 24 h, 34°C
Experimental: (§1) Antifungal susceptibility testing was carried out as described previously ([38], [39]), with a few modifications. Briefly, for each yeast or mold growth inhibition assay, frozen stocks of yeast cells or spores were diluted to a final concentration of 0.5 × 10^5 to 2.5 × 10^5 CFU/ml in sterile water. ZAC989, ZAC307, and ZAC623 were dissolved in DMSO to 10 mM stocks from which half-log serial dilutions were prepared. Growth assays were subsequently performed by pipetting 3 μl of compound dissolved in DMSO (giving a final concentration of 1.5% DMSO), 100 μl of cell-spore suspension, and 97 μl of 2× RPMI medium (20.8 g/liter of RPMI 1640 medium, 69.06 g/liter of morpholinepropanesulfonic acid [MOPS], 36 g/liter of glucose) into a microtiter plate that was incubated for 24 h (yeasts) or 48 to 72 h (molds) at 34°C. Fungal growth was determined spectrophotometrically by optical density reading of each well at a wavelength of 492 nm on a Victor X5 (Perkin-Elmer) plate reader. […] Standard errors between repeated experiments were generally below 5%. The growth effect of exogenous addition of various divalent metals was evaluated by performing the antifungal susceptibility assay in the presence of 5 μM ZAC989 or ZAC307 and with increasing concentrations (0.003 to 50 μM) of ZnSO4, CuSO4, (NH4)2Fe(SO4)2, MgCl2, and CaCl2.

[7] = test system: C. albicans SC5314; experiment: Antifungal susceptibility testing (MIC); assay type: cell-based, Candida albicans
Experimental: as §1

[8] = test system: C. krusei ATCC 6258; experiment: Antifungal susceptibility testing (MIC); assay type: cell-based, Candida krusei; details: Pichia kudriavzevii, ATCC6258; at least 50% growth inhibition, RPMI, 24 h, 34°C
Experimental: as §1

[9] = test system: A. fumigatus; set-up: method as in PMID 27401578; details: monotherapy; cited from earlier work

Structure (SMILES): COc1ccc(N(CC(=O)O)CC(=O)O)c(OCCOc2cc(-c3c4cc(F)c(=O)cc-4oc4cc(O)c(F)cc34)ccc2NCC(=O)O)c1 [FluoZin-3]
Kd ([1]; read-out: Kd (FluoZin-3–Zn^2+)): 0.015 µM

Structure (SMILES): OC(Cn1cncn1)(Cn1cncn1)c1ccc(F)cc1F [Fluconazole, fluconazole, reference compound]
change in the MIC after repeated exposure [2]: significant increase in the MIC
Mean log CFU/kidney [3]: 3.02 ± 0.22 log CFU/kidney
Mean log CFU/kidney reduction ([3]; vs untreated control): 2.78 log CFU/kidney

Structure (SMILES): C[C@@H]1[C@H](O)[C@@H](C)/C=C/C=C/C=C/C=C/C=C/C=C/C=C/[C@H](O[C@@H]2O[C@H](C)[C@@H](O)[C@H](N)[C@@H]2O)C[C@@H]2O[C@](O)(C[C@@H](O)C[C@@H](O)[C@H](O)CC[C@@H](O)C[C@@H](O)CC(=O)O[C@H]1C)C[C@H](O)[C@H]2C(=O)O [amphotericin B]
time-kill activity (fungistatic or fungicidal) [4]: fungicidal activity after 3 h of exposure

Structure (SMILES): COc1cc(O)c(-c2nc3c(CNCc4ccccn4)cccc3o2)cc1OC [Zinbo-5]
Kd ([1]; read-out: affinity constant for zinc): 0.0022 µM

Kd [5]: > 6 µM
MIC [6]: > 54 µg/mL
MIC ([7]; Candida albicans, SC5314, 24 h, at least 50% growth inhibition, RPMI, 24 h, 34°C, read-out: MIC): > 54 µg/mL
MIC [8]: > 54 µg/mL
Structure (SMILES): Cc1cc(N)n(-c2cc(N3CC[C@H](Oc4cnccc4C#N)C3)ncn2)n1 [ZAC623, 3-[(3S)-1-[6-(5-amino-3-methyl-pyrazol-1-yl)pyrimidin-4-yl]pyrrolidin-3-yl]oxypyri-dine-4-carbonitrile]
growth-inhibitory activity (in words) [7]: did not display growth-inhibitory activity

Structure (SMILES): c1cnc2c(c1)ccc1cccnc12 [phenanthroline]
survival and fungal burden [9]: significant improvements in survival with concomitant reduction in fungal burden
